Experimental data: patent US20100029752A1, “NOVEL COMPOUNDS, PHARMACEUTICAL COMPOSITIONS CONTAINING SAME, AND METHODS OF USE FOR SAME” (priority 2005, published 2010)
Converted amounts (≈) assume the structure as drawn.

What was measured:
Raji cells = settings: cited from earlier work
[1] = biological target: rat liver acyl-CoA synthetase; settings: rat liver enzyme; read-out: 50% inhibition of rat liver acyl-CoA synthetase; cited from earlier work
HIV protease = HIV protease (Human immunodeficiency virus type 1 group M subtype B, UniProt P04585); settings: cited from earlier work
[2] = test system: Mycobacterium tuberculosis; settings: in vitro; cited from earlier work
[3] = test system: MCF-7 human breast cancer cells; experiment: XTT cytotoxicity assay (M / MCF7); type: cell-based; settings: MCF-7 cells, 72 hours
Method: The XTT assay is a non-radioactive alternative for the [^51Cr] release cytotoxicity assay. XTT is a tetrazolium salt that is reduced to a formazan dye only by metabolically active, viable cells. The reduction of XTT is measured spectrophotometrically as OD490-OD650. To measure the cytotoxicity of specific compounds against cancer cells, 9×10^3 MCF-7 human breast cancer cells, obtained from the American Type Culture Collection are plated per well in 96 well plates in DMEM medium with 10% fetal bovine serum, insulin, penicillin, and streptomycin. Following overnight culture at 37° C. and 5% CO2, the compounds to be tested, dissolved in DMSO, are added to the wells in 1 μl volume at the following concentrations: 80, 40, 20, 10, 5, 2.5, 1.25, and 0.625 μg/ml in triplicate. Additional concentrations are tested if required. 1 μl of DMSO is added to triplicate wells are the vehicle control. C75 is run at 40, 20, […], and 5 μg/ml in triplicate as positive controls. After 72 hours of incubation, cells are incubated for 4 hours with the XTT reagent as per manufacturer's instructions (Cell Proliferation Kit 11 (XTT) Roche). Plates are read at OD490 and OD650 on a Molecular Devices SpectraMax Plus Spectrophotometer. Three wells containing the XTT reagent without cells serve as the plate blank. XTT data are reported as OD490-OD650. Averages and standard error of the mean are computed using SOFTmax Pro software ([…]). The IC50 for the compounds is defined as the concentration of drug leading to a 50% reduction in OD490-OD650 compared to controls. The OD490-OD650 are computed by the SOFTmax PRO software (Molecular Devices) for each compound concentration. IC50 is calculated by linear regression, plotting the FAS activity as percent of control versus drug concentrations. Linear regression, best-fit line, r^2, and 95% confidence intervals are determined using Prism Version 3.0 (Graph Pad Software).

[4] = test system: fatty acid synthesis pathway activity in MCF-7 human breast cancer cells; experiment: [14C]acetate incorporation into total lipids; type: cell-based; settings: Homo sapiens, MCF7; MCF-7 cells, [14C]acetate into lipids
Method: This assay measures the incorporation of [^14C]acetate into total lipids and is a measure of fatty acid synthesis pathway activity in vitro. It is utilized to measure inhibition of fatty acid synthesis in vitro.
MCF-7 human breast cancer cells cultured as above, are plated at 5×10^4 cells per well in 24-well plates. Following overnight incubation, the compounds to be tested, solubilized in DMSO, are added at 5, 10, and 20 μg/ml in triplicate, with lower concentrations tested if necessary. DMSO is added to triplicate wells for a vehicle control. C75 is run at 5 and 10 μg/ml in triplicate as positive controls. After 4 hours of incubation, 0.25 μCi of [^14C]acetate (10 μl volume) is added to each well.
After 2 hours of additional incubation, medium is aspirated from the wells and 800 μl of chloroform:methanol (2:1) and 700 μl of 4 mM MgCl2 is added to each well. Contents of each well are transferred to 1.5 Eppendorf tubes, and spun at full-speed for 2 minutes in a high-speed Eppendorf Microcentrifuge 5415D. After removal of the aqueous (upper) layer, an additional 700 μl of chloroform:methanol (2:1) and 500 μl of 4 mM MgCl2 are added to each tube and then centrifuged for 1 minutes as above. The aqueous layer is removed with a Pasteur pipette and discarded. An additional 400 μl of chloroform:methanol (2:1) and 200 μl of 4 mM MgCl2 are added to each tube, then centrifuged and aqueous layer is discarded. The lower (organic) phase is transferred into a scintillation vial and dried at 40° C. under N2 gas. Once dried, 3 ml of scintillant (APB #NBC5104) is added and vials are counted for ^14C. The Beckman Scintillation counter calculates the average cpm values for triplicates.
The IC50 for the compounds is defined as the concentration of drug leading to a 50% reduction in [^14C]acetate incorporation into lipids compared to controls. This is determined by plotting the average cpm for each inhibitor concentration tested, performing linear regression and computing the best-fit line, r^2 values, and 95% confidence intervals. The average cpm values are computed by the Beckman scintillation counter (Model LS6500) for each compound concentration. Computation of linear regression, best-fit line, r^2, and 95% confidence intervals are calculated using Prism Version 3.0 (Graph Pad Software).

[5] = test system: MCF-7 human breast cancer cells; experiment: Crystal violet cell growth assay; type: cell-based; settings: MCF7, MCF-7 cells, 72 hours, read-out: Cr. Violet (IC50)
Method: The crystal violet assay measures cell growth but not cytotoxicity. This assay employs crystal violet staining of fixed cells in 96-well plates with subsequent solubilization and measurement of OD490 on a spectrophotometer. The OD490 corresponds to cell growth per unit time measured. Cells are treated with the compounds of interest or vehicle controls and IC50 for each compound is computed.
To measure the cytotoxicity of specific compounds against cancer cells, 5×10^4 MCF-7 human breast cancer cells, obtained from the American Type Culture Collection are plated per well in 24 well plates in DMEM medium with 10% fetal bovine serum, penicillin, and streptomycin. Following overnight culture at 37° C. and 5% CO2, the compounds to be tested, dissolved in DMSO, are added to the wells in 1 μl volume at the following concentrations: 50, 40, 30, 20, and 10 μg/ml in triplicate. Additional concentrations are tested if required. 1 μl of DMSO is added to triplicate wells are the vehicle control. C75 is run at 10, and 5 μg/ml in triplicate as positive controls.
After 72 hours of incubation, cells are stained with 0.5 ml of Crystal Violet stain (0.5% in 25% methanol) in each well. After 10 minutes, wells are rinsed, air dried, and then solubilized with 0.5 ml 10% sodium dodecylsulfate with shaking for 2 hours. Following transfer of 100 μl from each well to a 96-well plate, plates are read at OD490 on a Molecular Devices SpectraMax Plus Spectrophotometer Average OD490 values are computed using SOFTmax Pro Software (Molecular Devices) and IC50 values are determined by linear regression analysis using Prism version 3.02 (Graph Pad Software, San Diego).

OV = experiment: XTT cytotoxicity assay (OV); type: cell-based; settings: (OV) cells
Method: The XTT assay is a non-radioactive alternative for the [^51Cr] release cytotoxicity assay. XTT is a tetrazolium salt that is reduced to a formazan dye only by metabolically active, viable cells. The reduction of XTT is measured spectrophotometrically as OD490-OD650. After 72 hours of incubation, cells are incubated for 4 hours with the XTT reagent as per manufacturer's instructions (Cell Proliferation Kit 11 (XTT) Roche). Plates are read at OD490 and OD650 on a Molecular Devices SpectraMax Plus Spectrophotometer. Three wells containing the XTT reagent without cells serve as the plate blank. XTT data are reported as OD490-OD650. Averages and standard error of the mean are computed using SOFTmax Pro software (Molecular Dynamics). The IC50 for the compounds is defined as the concentration of drug leading to a 50% reduction in OD490-OD650 compared to controls. The OD490-OD650 are computed by the SOFTmax PRO software (Molecular Devices) for each compound concentration. IC50 is calculated by linear regression, plotting the FAS activity as percent of control versus drug concentrations. Linear regression, best-fit line, r^2, and 95% confidence intervals are determined using Prism Version 3.0 (Graph Pad Software).

FAS = biological target: T1, FAS (Homo sapiens, UniProt P49327); experiment: FAS (IC50) marked (SB); type: biochemical; settings: value marked (SB), not defined
T1 construct: Human FAS was purified from cultured ZR-75-1 human breast cancer cells; endogenous in cells
T1 sequence (P49327 whole entry): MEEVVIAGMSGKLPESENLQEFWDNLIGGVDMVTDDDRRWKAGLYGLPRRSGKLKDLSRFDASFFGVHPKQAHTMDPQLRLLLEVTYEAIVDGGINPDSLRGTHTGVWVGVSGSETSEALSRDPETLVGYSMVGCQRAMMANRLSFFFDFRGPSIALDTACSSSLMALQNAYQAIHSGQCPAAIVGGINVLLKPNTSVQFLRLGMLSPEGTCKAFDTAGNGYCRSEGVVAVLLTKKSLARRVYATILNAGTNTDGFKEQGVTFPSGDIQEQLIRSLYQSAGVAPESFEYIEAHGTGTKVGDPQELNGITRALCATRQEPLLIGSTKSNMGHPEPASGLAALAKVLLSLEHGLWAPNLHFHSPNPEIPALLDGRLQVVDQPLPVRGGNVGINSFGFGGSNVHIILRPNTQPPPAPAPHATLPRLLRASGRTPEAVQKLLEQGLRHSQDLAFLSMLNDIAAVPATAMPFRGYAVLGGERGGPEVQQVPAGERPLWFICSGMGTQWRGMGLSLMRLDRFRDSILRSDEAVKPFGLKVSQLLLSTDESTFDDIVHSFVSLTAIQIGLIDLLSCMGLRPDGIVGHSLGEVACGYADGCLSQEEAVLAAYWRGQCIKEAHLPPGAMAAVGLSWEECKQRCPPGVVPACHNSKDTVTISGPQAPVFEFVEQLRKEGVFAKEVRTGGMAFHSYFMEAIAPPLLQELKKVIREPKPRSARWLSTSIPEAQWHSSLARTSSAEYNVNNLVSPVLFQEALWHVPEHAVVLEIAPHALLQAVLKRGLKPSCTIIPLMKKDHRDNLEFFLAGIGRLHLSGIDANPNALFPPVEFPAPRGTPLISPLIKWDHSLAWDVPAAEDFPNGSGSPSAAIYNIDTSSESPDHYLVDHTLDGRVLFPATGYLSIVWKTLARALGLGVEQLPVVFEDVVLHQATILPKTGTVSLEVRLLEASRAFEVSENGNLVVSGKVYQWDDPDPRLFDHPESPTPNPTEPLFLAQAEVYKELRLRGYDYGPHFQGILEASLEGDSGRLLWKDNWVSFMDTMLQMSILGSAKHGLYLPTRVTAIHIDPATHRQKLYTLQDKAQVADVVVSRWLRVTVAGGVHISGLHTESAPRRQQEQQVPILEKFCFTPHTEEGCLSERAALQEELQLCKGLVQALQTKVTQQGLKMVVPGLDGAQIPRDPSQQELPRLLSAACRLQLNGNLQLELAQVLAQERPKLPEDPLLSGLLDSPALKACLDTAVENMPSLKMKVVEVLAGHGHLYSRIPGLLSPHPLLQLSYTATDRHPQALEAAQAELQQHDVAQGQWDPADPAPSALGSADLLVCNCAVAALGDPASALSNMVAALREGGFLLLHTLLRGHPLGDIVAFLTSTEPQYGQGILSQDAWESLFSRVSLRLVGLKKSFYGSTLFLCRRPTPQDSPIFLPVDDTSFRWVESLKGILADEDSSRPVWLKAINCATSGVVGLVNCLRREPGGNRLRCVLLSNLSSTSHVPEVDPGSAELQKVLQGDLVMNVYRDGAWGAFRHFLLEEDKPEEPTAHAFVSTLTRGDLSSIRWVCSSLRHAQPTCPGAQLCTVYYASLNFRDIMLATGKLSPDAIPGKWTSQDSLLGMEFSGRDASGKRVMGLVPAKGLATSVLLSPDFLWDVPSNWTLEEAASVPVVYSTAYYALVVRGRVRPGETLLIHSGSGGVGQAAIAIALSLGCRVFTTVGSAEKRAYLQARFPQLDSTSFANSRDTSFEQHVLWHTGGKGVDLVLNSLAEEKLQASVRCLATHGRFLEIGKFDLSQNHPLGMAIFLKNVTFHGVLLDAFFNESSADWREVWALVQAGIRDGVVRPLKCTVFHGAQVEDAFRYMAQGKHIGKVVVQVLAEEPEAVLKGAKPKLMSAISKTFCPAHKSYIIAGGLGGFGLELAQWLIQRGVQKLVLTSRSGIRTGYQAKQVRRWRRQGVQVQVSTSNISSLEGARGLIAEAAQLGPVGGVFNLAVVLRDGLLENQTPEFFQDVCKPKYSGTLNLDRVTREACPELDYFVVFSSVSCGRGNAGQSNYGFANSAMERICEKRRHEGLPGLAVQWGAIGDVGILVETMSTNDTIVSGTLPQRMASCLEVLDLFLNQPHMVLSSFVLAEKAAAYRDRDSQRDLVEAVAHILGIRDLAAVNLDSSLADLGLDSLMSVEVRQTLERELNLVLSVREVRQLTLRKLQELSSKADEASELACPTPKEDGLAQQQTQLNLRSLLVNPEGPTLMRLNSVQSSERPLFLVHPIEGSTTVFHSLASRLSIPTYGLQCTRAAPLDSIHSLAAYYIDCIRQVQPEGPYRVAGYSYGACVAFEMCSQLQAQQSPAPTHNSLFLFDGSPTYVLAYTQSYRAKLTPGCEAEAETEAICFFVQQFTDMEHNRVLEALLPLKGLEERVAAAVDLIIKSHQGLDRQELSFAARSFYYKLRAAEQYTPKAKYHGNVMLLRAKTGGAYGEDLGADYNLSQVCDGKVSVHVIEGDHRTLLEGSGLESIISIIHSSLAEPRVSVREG

Weight loss screen = type: in vivo, Balb/C mice; settings: 60 mg/kg intraperitoneally, day 2
Method: Balb/C mice (Jackson Labs) are utilized for the initial weight loss screening. Animals are housed in temperature and 12 hour day/night cycle rooms and fed mouse chow and water ad lib. Three mice are utilized for each compound tested with vehicle controls in triplicate per experiment. For the experiments, mice are housed separately for each compound tested three mice to a cage. Compounds are diluted in DMSO at 10 mg/ml and mice are injected intraperitoneally with 60 mg/kg in approximately 100 μl of DMSO or with vehicle alone. Mice are observed and weighed daily; average weights and standard errors are computed with Excel (Microsoft). The experiment continues until treated animals reach their pretreatment weights. Select compounds are tested in animals housed in metabolic cages. Dosing of animals are identical to the screening experiments with three animals to a single metabolic cage. Animal weights, water and food consumption, and urine and feces production are measured daily.

| Compound | IC50 [3] [µg/mL] | IC50 (OV) [µg/mL] | IC50 (FAS) [µM] | further results |
| --- | --- | --- | --- | --- |
| CCCC=CCC=CC=CC=NN=NO [Triacsin C, 1-hydroxy-3-(E, E, E-2′,4′,7′-undecatrienylidine) triazene] |  |  |  | concentration causing growth inhibition in Raji cells (Raji cells): 1.0 µM; IC50 [1]: 8.7 µM |
| C/C=C/C/C=C/CCC(=O)[C@H]1O[C@H]1C(N)=O [cerulenin, (2S,3R)-2,3-epoxy-4-oxo-7,10 dodecadienoyl amide] |  |  |  | concentration for inhibition of viral HIV protease (HIV protease): 5 mg/mL; activity against Mycobacterium tuberculosis [2]: no activity |
| CCCCCCCCNC(=O)c1cc(OCC(=O)OC)cs1 | 41.1 ± 2.6 (≈ 126 µM) | 55 (≈ 168 µM) |  | IC50 [4]: 15.8 µg/mL (≈ 48.3 µM); IC50 [5]: 43.4 µg/mL (≈ 133 µM); FAS (IC50) (SB) (FAS): Neg (SB) |
| O=C(NNC(=O)c1cc(O)cs1)c1ccco1 | > 80 | > 80 | 135 | Weight Loss (Weight loss screen): 60 mg/kg: 1.5% (day 2) |
| O=C(NNc1ccc(Cl)cc1)c1cc(O)cs1 | 56.9 (≈ 212 µM) | 30 (≈ 112 µM) | 510 |  |
